Experimental data reported in patent US7285564B2, “Substituted 4-amino-1-(pyridylmethyl)piperidine and related compounds” (Theravance, Inc., priority 2002, dated 2007).

Test system: oxotremorine-induced salivation
Test: In vivo rat salivation assay
Settings: rat bladder assay vs rat salivation assay
Experimental: Female Sprague-Dawley rats weighing 200 to 300 g were anesthetized with urethane (1.5 g/kg, s.c., Sigma, St. Louis, Mo.), with a supplement of 0.25 g/kg, s.c. urethane as needed. Urethane was administered at a concentration of 0.25 g/mL.
Rats were placed on a heated blanket on their dorsal side in an inclined position (20° angle) position (head down). A swab was placed in the rat's mouth. The test compound or vehicle was administered intravenously via the tail vein. After 5 min., oxotremorine (1.0 mg/kg) was administered subcutaneously. The swab was discarded and
Replaced by a pre-weighed swab. Saliva was then collected for 10 min. and then the swab was removed and re-weighed to determine the output of saliva. Dose-response curves were fitted with a four parameter logistic equation to obtain estimates of ID50 (dose required to produce 50% of the maximal response).
By comparing the ID50 values determined in the rat bladder assay and rat salivation assay, the in vivo bladder/salivation selectivity ratio was calculated for the compounds tested.

Compound | ID50 bladder/salivation selectivity ratio
CCN(CC)CC#CCOC(=O)C(O)(c1ccccc1)C1CCCCC1 (centres unmarked) [oxybutynin, reference compound] | about 1.4
Cc1ccc(O)c([C@H](CCN(C(C)C)C(C)C)c2ccccc2)c1 [tolterodine, reference compound] | ~4.8
